Test results: BigSolDB 2.1

O=c1cc(CO)occ1O
Details	solubility (mole fraction)
in 1,4-dioxane, 288.15 K	0.00698
in 1,4-dioxane, 293.15 K	0.0086
in 1,4-dioxane, 298.15 K	0.0103
in 1,4-dioxane, 303.15 K	0.0121
in 1,4-dioxane, 308.15 K	0.0153
in 1,4-dioxane, 313.15 K	0.018
in 1,4-dioxane, 318.15 K	0.0209
in 2-ethoxyethanol, 278.15 K	0.0134
in 2-ethoxyethanol, 283.15 K	0.015
in 2-ethoxyethanol, 288.15 K	0.0177
in 2-ethoxyethanol, 293.15 K	0.0204
in 2-ethoxyethanol, 298.15 K	0.0233
in 2-ethoxyethanol, 303.15 K	0.0261
in 2-ethoxyethanol, 308.15 K	0.03
in 2-ethoxyethanol, 313.15 K	0.034
in 2-ethoxyethanol, 318.15 K	0.0381
in 2-ethoxyethanol, 323.15 K	0.0435
in 2-methoxyethanol, 278.15 K	0.0181
in 2-methoxyethanol, 283.15 K	0.0214
in 2-methoxyethanol, 288.15 K	0.0252
in 2-methoxyethanol, 293.15 K	0.0287
in 2-methoxyethanol, 298.15 K	0.0331
in 2-methoxyethanol, 303.15 K	0.0377
in 2-methoxyethanol, 308.15 K	0.0431
in 2-methoxyethanol, 313.15 K	0.0491
in 2-methoxyethanol, 318.15 K	0.0559
in 2-methoxyethanol, 323.15 K	0.0625
in DMAc, 278.15 K	0.148
in DMAc, 283.15 K	0.157
in DMAc, 288.15 K	0.165
in DMAc, 293.15 K	0.174
in DMAc, 298.15 K	0.184
in DMAc, 303.15 K	0.194
in DMAc, 308.15 K	0.205
in DMAc, 313.15 K	0.216
in DMAc, 318.15 K	0.228
in DMAc, 323.15 K	0.24
in DMF, 278.15 K	0.0977
in DMF, 283.15 K	0.106
in DMF, 288.15 K	0.114
in DMF, 293.15 K	0.123
in DMF, 298.15 K	0.135
in DMF, 303.15 K	0.147
in DMF, 308.15 K	0.157
in DMF, 313.15 K	0.168
in DMF, 318.15 K	0.18
in DMF, 323.15 K	0.193
in DMSO, 293.15 K	0.238
in DMSO, 298.15 K	0.249
in DMSO, 303.15 K	0.259
in DMSO, 308.15 K	0.268
in DMSO, 313.15 K	0.28
in DMSO, 318.15 K	0.292
in DMSO, 323.15 K	0.303
in DMSO, 328.15 K	0.316
in DMSO, 333.15 K	0.331
in NMP, 278.15 K	0.17
in NMP, 283.15 K	0.179
in NMP, 288.15 K	0.185
in NMP, 293.15 K	0.193
in NMP, 298.15 K	0.201
in NMP, 303.15 K	0.208
in NMP, 308.15 K	0.216
in NMP, 313.15 K	0.223
in NMP, 318.15 K	0.232
in NMP, 323.15 K	0.241
in acetic acid, 293.15 K	0.0139
in acetic acid, 298.15 K	0.0169
in acetic acid, 303.15 K	0.0204
in acetic acid, 308.15 K	0.0246
in acetic acid, 313.15 K	0.0293
in acetic acid, 318.15 K	0.0353
in acetic acid, 323.15 K	0.0425
in acetic acid, 328.15 K	0.0511
in acetic acid, 333.15 K	0.0613
in acetone, 278.15 K	0.00224
in acetone, 283.15 K	0.00276
in acetone, 288.15 K	0.00324
in acetone, 293.15 K	0.00383
in acetone, 298.15 K	0.00455
in acetone, 303.15 K	0.00556
in acetone, 308.15 K	0.00686
in acetone, 313.15 K	0.008
in acetone, 318.15 K	0.00932
in acetone, 323.15 K	0.0106
in ethanol, 278.15 K	0.0031
in ethanol, 283.15 K	0.00374
in ethanol, 288.15 K	0.00459
in ethanol, 293.15 K	0.00595
in ethanol, 298.15 K	0.00739
in ethanol, 303.15 K	0.00893
in ethanol, 308.15 K	0.0108
in ethanol, 313.15 K	0.013
in ethanol, 318.15 K	0.0158
in ethanol, 323.15 K	0.0191
in ethyl acetate, 278.15 K	0.000804
in ethyl acetate, 283.15 K	0.00105
in ethyl acetate, 288.15 K	0.00137
in ethyl acetate, 293.15 K	0.00169
in ethyl acetate, 298.15 K	0.00201
in ethyl acetate, 303.15 K	0.00242
in ethyl acetate, 308.15 K	0.00296
in ethyl acetate, 313.15 K	0.00338
in ethyl acetate, 318.15 K	0.00411
in ethyl acetate, 323.15 K	0.00497
in methanol, 278.15 K	0.00492
in methanol, 283.15 K	0.00606
in methanol, 288.15 K	0.00737
in methanol, 293.15 K	0.00891
in methanol, 298.15 K	0.011
in methanol, 303.15 K	0.0132
in methanol, 308.15 K	0.0156
in methanol, 313.15 K	0.0189
in methanol, 318.15 K	0.0223
in methanol, 323.15 K	0.0267
in n-propanol, 278.15 K	0.00225
in n-propanol, 283.15 K	0.00281
in n-propanol, 288.15 K	0.00339
in n-propanol, 293.15 K	0.00423
in n-propanol, 298.15 K	0.00524
in n-propanol, 303.15 K	0.00646
in n-propanol, 308.15 K	0.00782
in n-propanol, 313.15 K	0.00964
in n-propanol, 318.15 K	0.0116
in n-propanol, 323.15 K	0.0139
in water, 278.15 K	0.00216
in water, 283.15 K	0.00276
in water, 288.15 K	0.00353
in water, 293.15 K	0.0043
in water, 298.15 K	0.00553
in water, 303.15 K	0.00679
in water, 308.15 K	0.00873
in water, 313.15 K	0.0113
in water, 318.15 K	0.0143
in water, 323.15 K	0.0185
